Experimental data: patent US20260174766A1, “COMBINATION OF MENIN INHIBITOR(S) AND IMMUNOPROTEASOME INHIBITOR(S) FOR TREATMENT OF LEUKEMIA” (Medizinische Hochschule Hannover, priority 2022, published 2026)

Test system: MLL-AF9 driven leukemia
Experiment: MLL-AF9 driven murine leukemia, in vivo PR-957 treatment of primary recipients
Parameters: species or system mouse
Description: For induction of MLL-AF9 (MA9) driven leukemia we used established retroviral MSCV-GFP-based vectors to express MA9 in hematopoietic stem- and progenitor cells (Lineage-negative, Sca1-positive, Kit-positive [LSK] cells). In detail, bone marrow (BM) of LMP7+/+ or LMP7−/− littermates was isolated following standard procedures from 6-12-weeks-old mice. Lineage-depletion was performed using Streptavidin Particles Plus-DM (BD Biosciences, Heidelberg, Germany) and a DynaMag magnet (Thermo Fisher Scientific). Lineage-depleted cells were stained with streptavidin BV421, KIT AF647 and Sca-1 FITC or PE antibodies (all antibodies were received from Biolegend, San Diego, CA, USA) and then used for cell sorting. Sorted LSK cells were pre-stimulated on RetroNectin-coated plates (Takara Bio USA, Inc., Mountain View, CA, USA) in serum-free medium (StemSpan™ SFEM, StemCell Technologies, Vancouver, Canada) supplemented with SCF, TPO, IL-3 and IL-6 (all cytokines from PeproTech, Hamburg, Germany) overnight. 20 hours after stimulation, LSK cells were infected twice (8 hours gap) by spinfection (872 g, 1.5 hours, 33° C.) with retroviral particles containing the oncogenic vectors. Cells were analyzed 48 hours after first infection for GFP-expression using flow cytometry and 7.5×10^4 GFP+ cells were injected into sublethally irradiated (7 Gy, single dose) primary recipient mice (C57BL/6J; females). For serial transplantation of leukemia, 3×10^5 whole bone marrow cells of diseased animals were transplanted into secondary C57BL/6J recipient mice (sublethal irradiation, 7 Gy, single dose). […]
To characterize the effects of LMP7/PSMB8 inhibition in more detail, differentiation following PR-957 treatment was assessed. […]

With `COc1ccc(C[C@H](NC(=O)[C@H](C)NC(=O)CN2CCOCC2)C(=O)N[C@@H](Cc2ccccc2)C(=O)[C@]2(C)CO2)cc1` [PR-957, (2S)-3-(4-methoxyphenyl)-N-[(2S)-1-[(2S)-2-methyloxiran-2-yl]-1-oxo-3-phenylpropan-2-yl]-2-[[(2S)-2-[(2-morpholin-4-ylacetyl)amino]propanoyl]amino]propanamide] the “leukemic cells in the peripheral blood and spleen size” value (6 mg/kg i.v. QD 3 weeks (5 days per week), 3 days after discontinuation, vs diluent, FIG. 2B,C) was “reduced compared to diluent treated controls”, the “abundance of leukemic cells in the bone marrow” value (6 mg/kg i.v. QD 3 weeks (5 days per week), control 69.8%, FIG. 2D) was 42.9% and the “frequency of L-GMP populations” value (6 mg/kg i.v. QD 3 weeks, diluent control 3.57+/-0.52%, p=0.0087, FIG. 2E) was 2.25+/−0.8%.
